Reference: ChEMBL document CHEMBL1201862, “PubChem BioAssay data set” (2004)
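These data come from cells grown in 96-well plates and exposed to compound for 48 hours at five concentrations. The concentration for 50% growth inhibition is given as GI50.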 Activity calls are given as the source filed them. Cut-off read from the data, not from the text of the source: active = GI50 up to about 1.1 µM and inactive = higher.

Columns and labels:
Assay in all cases: NCI-60 cell line screen, 48 h
MOLT-4 = tested on: MOLT-4
M14 = tested on: M14
HOP-62 = tested on: HOP-62
SNB-75 = tested on: SNB-75
IGROV-1 = tested on: IGROV-1
SK-MEL-5 = tested on: SK-MEL-5
EKVX = tested on: EKVX
NCI-H23 = tested on: NCI-H23
OVCAR-4 = tested on: OVCAR-4
RPMI-8226 = tested on: RPMI-8226
SN12C = tested on: SN12C
RXF 393 = tested on: RXF 393
COLO 205 = tested on: COLO 205
OVCAR-8 = tested on: OVCAR-8
NCI-H226 = tested on: NCI-H226
SR = tested on: SR

Brc1cc(C2OCCCO2)ccc1OCc1ccccc1
GI50 (MOLT-4): 24.9 µM (inactive)
GI50 (M14): 33.5 µM (inactive)
GI50 (HOP-62): 43.9 µM (inactive)
GI50 (SNB-75): 45.3 µM (inactive)
GI50 (IGROV-1): > 100 µM (inactive)
GI50 (SK-MEL-5): 27.2 µM (inactive)
GI50 (EKVX): 52.8 µM (inactive)
GI50 (NCI-H23): 45.6 µM (inactive)
GI50 (OVCAR-4): 31.2 µM (inactive)
GI50 (RPMI-8226): 25.9 µM (inactive)
GI50 (SN12C): > 100 µM (inactive)
GI50 (RXF 393): 67.9 µM (inactive)
GI50 (COLO 205): 27.4 µM (inactive)
GI50 (OVCAR-8): 57.3 µM (inactive)
GI50 (NCI-H226): 73.1 µM (inactive)

O=C(/C=C/c1c(O)ccc2ccccc12)c1ccccc1Cl
GI50 (MOLT-4): 33.4 µM (inactive)
GI50 (M14): 18.5 µM (inactive)
GI50 (HOP-62): 76.6 µM (inactive)
GI50 (SNB-75): 25.3 µM (inactive)
GI50 (IGROV-1): 55.5 µM (inactive)
GI50 (SK-MEL-5): 18.2 µM (inactive)
GI50 (EKVX): 67.9 µM (inactive)
GI50 (NCI-H23): 19.8 µM (inactive)
GI50 (OVCAR-4): 39 µM (inactive)
GI50 (RPMI-8226): 27.7 µM (inactive)
GI50 (SN12C): 26.7 µM (inactive)
GI50 (RXF 393): 26.2 µM (inactive)
GI50 (COLO 205): 17.8 µM (inactive)
GI50 (OVCAR-8): 32 µM (inactive)
GI50 (NCI-H226): > 100 µM (inactive)

CCCCCCCCC(=O)NCCCNCCCNC(=O)CCCCCCCC
GI50 (MOLT-4): 3.4 µM (inactive)
GI50 (M14): 2.07 µM (inactive)
GI50 (HOP-62): 13.8 µM (inactive)
GI50 (IGROV-1): 4.35 µM (inactive)
GI50 (SK-MEL-5): 3.82 µM (inactive)
GI50 (EKVX): 14.9 µM (inactive)
GI50 (SR): 2.62 µM (inactive)
GI50 (NCI-H23): 15.7 µM (inactive)
GI50 (OVCAR-4): 14.7 µM (inactive)
GI50 (RPMI-8226): 3.23 µM (inactive)
GI50 (SN12C): 6.19 µM (inactive)
GI50 (RXF 393): 8.89 µM (inactive)
GI50 (COLO 205): 4.88 µM (inactive)
GI50 (OVCAR-8): 14.9 µM (inactive)
GI50 (NCI-H226): 17.9 µM (inactive)

CN(C)c1ccc(/C=C(/C(=O)O)c2csc(-c3nc(/C(=C\c4ccc(N(C)C)cc4)C(=O)O)cs3)n2)cc1
GI50 (MOLT-4): 58.6 µM (inactive)
GI50 (M14): > 100 µM (inactive)
GI50 (HOP-62): > 100 µM (inactive)
GI50 (SNB-75): > 100 µM (inactive)
GI50 (IGROV-1): > 100 µM (inactive)
GI50 (SK-MEL-5): 86.5 µM (inactive)
GI50 (EKVX): > 100 µM (inactive)
GI50 (NCI-H23): > 100 µM (inactive)
GI50 (RPMI-8226): 46.1 µM (inactive)
GI50 (SN12C): > 100 µM (inactive)
GI50 (RXF 393): > 100 µM (inactive)
GI50 (COLO 205): 93.3 µM (inactive)
GI50 (OVCAR-8): > 100 µM (inactive)
GI50 (NCI-H226): > 100 µM (inactive)

N#C/C(=C\c1cc(OCc2ccccc2)c(OCc2ccccc2)cn1)C(N)=O
GI50 (MOLT-4): 23.3 µM (inactive)
GI50 (M14): > 100 µM (inactive)
GI50 (HOP-62): > 100 µM (inactive)
GI50 (SNB-75): 36.7 µM (inactive)
GI50 (IGROV-1): > 100 µM (inactive)
GI50 (SK-MEL-5): > 100 µM (inactive)
GI50 (EKVX): > 100 µM (inactive)
GI50 (NCI-H23): > 100 µM (inactive)
GI50 (OVCAR-4): > 100 µM (inactive)
GI50 (RPMI-8226): 36.6 µM (inactive)
GI50 (SN12C): > 100 µM (inactive)
GI50 (RXF 393): > 100 µM (inactive)
GI50 (COLO 205): > 100 µM (inactive)
GI50 (OVCAR-8): > 100 µM (inactive)
GI50 (NCI-H226): > 100 µM (inactive)

O=C1C2CC=CCC2C(=O)C12CCc1ccccc12 (stereo not given)
GI50 (M14): > 100 µM (inactive)
GI50 (HOP-62): > 100 µM (inactive)
GI50 (SNB-75): > 100 µM (inactive)
GI50 (IGROV-1): > 100 µM (inactive)
GI50 (EKVX): > 100 µM (inactive)
GI50 (NCI-H23): > 100 µM (inactive)
GI50 (OVCAR-4): > 100 µM (inactive)
GI50 (SN12C): > 100 µM (inactive)
GI50 (RXF 393): > 100 µM (inactive)
GI50 (COLO 205): > 100 µM (inactive)
GI50 (OVCAR-8): > 100 µM (inactive)

COc1cc(CNc2cnc3ccc(N)cc3n2)cc(OC)c1OC
GI50 (MOLT-4): > 100 µM (inactive)
GI50 (M14): > 100 µM (inactive)
GI50 (HOP-62): > 100 µM (inactive)
GI50 (SNB-75): > 100 µM (inactive)
GI50 (IGROV-1): > 100 µM (inactive)
GI50 (SK-MEL-5): 71.3 µM (inactive)
GI50 (EKVX): > 100 µM (inactive)
GI50 (NCI-H23): > 100 µM (inactive)
GI50 (OVCAR-4): > 100 µM (inactive)
GI50 (RPMI-8226): 91.4 µM (inactive)
GI50 (SN12C): > 100 µM (inactive)
GI50 (RXF 393): > 100 µM (inactive)
GI50 (COLO 205): > 100 µM (inactive)
GI50 (OVCAR-8): > 100 µM (inactive)
GI50 (NCI-H226): > 100 µM (inactive)

Cc1nc2nnnn2c2c1C(=O)Nc1ccccc1N2
GI50 (MOLT-4): 43.2 µM (inactive)
GI50 (M14): > 100 µM (inactive)
GI50 (HOP-62): 71.9 µM (inactive)
GI50 (SNB-75): > 100 µM (inactive)
GI50 (IGROV-1): > 100 µM (inactive)
GI50 (EKVX): 79.8 µM (inactive)
GI50 (SR): 18.7 µM (inactive)
GI50 (NCI-H23): > 100 µM (inactive)
GI50 (RPMI-8226): > 100 µM (inactive)
GI50 (SN12C): > 100 µM (inactive)
GI50 (RXF 393): > 100 µM (inactive)
GI50 (COLO 205): > 100 µM (inactive)
GI50 (OVCAR-8): > 100 µM (inactive)
GI50 (NCI-H226): > 100 µM (inactive)

COc1ccc(CNc2cnc3ccc(N)cc3n2)cc1
GI50 (MOLT-4): 24.7 µM (inactive)
GI50 (M14): > 100 µM (inactive)
GI50 (HOP-62): > 100 µM (inactive)
GI50 (SNB-75): 64.6 µM (inactive)
GI50 (SK-MEL-5): 35.3 µM (inactive)
GI50 (EKVX): > 100 µM (inactive)
GI50 (NCI-H23): > 100 µM (inactive)
GI50 (OVCAR-4): > 100 µM (inactive)
GI50 (RPMI-8226): 81.8 µM (inactive)
GI50 (SN12C): > 100 µM (inactive)
GI50 (COLO 205): 0.064 µM (active)
GI50 (OVCAR-8): > 100 µM (inactive)
GI50 (NCI-H226): > 100 µM (inactive)

O=C(O)CCNS(=O)(=O)c1ccc(NC(=O)c2ccccc2)cc1
GI50 (MOLT-4): > 100 µM (inactive)
GI50 (M14): > 100 µM (inactive)
GI50 (SNB-75): > 100 µM (inactive)
GI50 (IGROV-1): > 100 µM (inactive)
GI50 (SK-MEL-5): > 100 µM (inactive)
GI50 (EKVX): > 100 µM (inactive)
GI50 (NCI-H23): > 100 µM (inactive)
GI50 (OVCAR-4): > 100 µM (inactive)
GI50 (RPMI-8226): > 100 µM (inactive)
GI50 (SN12C): > 100 µM (inactive)
GI50 (RXF 393): > 100 µM (inactive)
GI50 (COLO 205): > 100 µM (inactive)
GI50 (OVCAR-8): > 100 µM (inactive)
